Reference: US9487488B2, “Sulfonamide compound” (MITSUBISHI TANABE PHARMA CORPORATION, priority 2012, dated 2016)

target: human TRPM8 (Homo sapiens (Human), UniProt Q7Z2W7); experiment: TRPM8 inhibition assay (menthol-induced calcium influx, FDSS); assay type: cell-based; settings: HEK293 cells stably expressing human TRPM8; 100 μmol/L menthol; Fura-2AM calcium signal; read-out: TRPM8 Blocking Test (IC50/nmol/L)
Experimental: The functional activity of a test compound was determined by measuring change in intracellular calcium concentration using a calcium sensitive fluorescent dye. The change in fluorescent signal was measured by the cell imaging technology by Hamamatsu Photonics's Functional Drug Screening System (FDSS).
HEK293 cells stably expressing human TRPM8 were grown in a flask. On assay day, the culture medium was removed from the flask, and cells were washed with phosphate-buffered saline (PBS) and harvested with PBS containing 2 mmol/L of ethylenediaminetetraacetic acid disodium salt (EDTA-2Na). […] Subsequently, suspended 20,000 to 50,000 cells per well were incubated with a test compound (at varying concentrations) in each well at 37° C. for 20 minutes. Change in intracellular calcium concentration evoked by 100 μmol/L of menthol was measured for 2 minutes using FDSS. […] The concentration-response curve was generated using the average of quadruplicate wells for each data point.

Chain of human TRPM8 (Q7Z2W7 whole entry): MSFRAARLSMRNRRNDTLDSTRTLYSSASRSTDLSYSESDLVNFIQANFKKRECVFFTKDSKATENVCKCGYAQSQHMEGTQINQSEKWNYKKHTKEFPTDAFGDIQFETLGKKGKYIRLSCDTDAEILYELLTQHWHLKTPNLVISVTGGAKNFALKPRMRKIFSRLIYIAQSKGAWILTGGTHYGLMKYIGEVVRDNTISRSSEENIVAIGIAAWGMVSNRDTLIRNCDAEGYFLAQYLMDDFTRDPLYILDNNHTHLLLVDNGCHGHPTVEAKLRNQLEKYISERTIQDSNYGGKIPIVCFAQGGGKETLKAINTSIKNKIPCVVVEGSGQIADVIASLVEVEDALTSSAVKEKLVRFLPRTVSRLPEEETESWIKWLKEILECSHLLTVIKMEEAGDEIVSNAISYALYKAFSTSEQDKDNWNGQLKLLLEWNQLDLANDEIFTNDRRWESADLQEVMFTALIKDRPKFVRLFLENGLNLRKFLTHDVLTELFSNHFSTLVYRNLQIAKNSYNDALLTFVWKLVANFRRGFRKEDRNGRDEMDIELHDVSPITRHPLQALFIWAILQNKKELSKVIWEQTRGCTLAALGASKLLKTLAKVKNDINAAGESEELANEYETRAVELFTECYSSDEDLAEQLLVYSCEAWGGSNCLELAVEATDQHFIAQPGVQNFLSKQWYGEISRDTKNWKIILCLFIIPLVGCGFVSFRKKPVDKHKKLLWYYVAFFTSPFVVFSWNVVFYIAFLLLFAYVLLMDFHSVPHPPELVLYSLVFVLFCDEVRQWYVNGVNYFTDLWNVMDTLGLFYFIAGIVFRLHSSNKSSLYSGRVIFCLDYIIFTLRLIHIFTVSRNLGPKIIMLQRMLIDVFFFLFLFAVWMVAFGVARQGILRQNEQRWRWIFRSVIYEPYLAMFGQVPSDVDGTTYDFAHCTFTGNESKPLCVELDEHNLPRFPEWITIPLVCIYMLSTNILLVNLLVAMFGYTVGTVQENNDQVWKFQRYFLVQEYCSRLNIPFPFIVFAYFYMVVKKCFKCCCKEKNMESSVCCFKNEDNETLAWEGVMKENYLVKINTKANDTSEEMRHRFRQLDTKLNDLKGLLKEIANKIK

Row | SMILES | IC50
1 | O=S(=O)(c1ccc(-c2nnn[nH]2)cn1)N(Cc1ccc(OC(F)(F)F)cc1)c1ncc2ccccc2c1C1CC1 [Example 3, N-(4-cyclopropylisoquinolin-3-yl)-5-(1H-tetrazol-5-yl)-N-[4-(trifluoromethoxy)benzyl]pyridine-2-sulfonamide] | 7.6 nmol/L
2 | O=c1[nH]nnn1-c1ccc(S(=O)(=O)N(Cc2ccc(OC(F)(F)F)cc2)c2ncc3ccccc3c2C2CC2)cc1 [Example 4, N-(4-cyclopropylisoquinolin-3-yl)-4-(5-oxo-4,5-dihydro-1H-tetrazol-1-yl)-N-[4-(trifluoromethoxy)benzyl]benzenesulfonamide] | 1.1 nmol/L
3 | O=S(=O)(c1ccc(-c2ncn[nH]2)cc1)N(Cc1ccc(OC(F)(F)F)cc1)c1ncc2ccccc2c1C1CC1 [Example 5, N-(4-cyclopropylisoquinolin-3-yl)-4-(2H-1,2,4-triazol-3-yl)-N-[4-(trifluoromethoxy)benzyl]benzenesulfonamide] | 3.4 nmol/L
4 | O=S(=O)(c1ccc(-c2ncn[nH]2)nc1)N(Cc1ccc(OC(F)(F)F)cc1)c1ncc2ccccc2c1C1CC1 [Example 6, N-(4-cyclopropylisoquinolin-3-yl)-6-(1H-1,2,4-triazol-5-yl)-N-[4-(trifluoromethoxy)benzyl]pyridine-3-sulfonamide] | 1.7 nmol/L
5 | O=c1[nH]c(-c2ccc(S(=O)(=O)N(Cc3ccc(OC(F)(F)F)cc3)c3ncc4ccccc4c3C(F)(F)F)cc2)no1 [Example 8, 4-(5-oxo-4,5-dihydro-1,2,4-oxadiazol-3-yl)-N-[4-(trifluoromethoxy)benzyl]-N-[4-(trifluoromethyl)isoquinolin-3-yl]benzenesulfonamide] | 2.3 nmol/L
6 | CC(=O)NCc1ccc(S(=O)(=O)N(Cc2ccc(OC(F)(F)F)cc2)c2ncc3ccccc3c2C2CC2)cc1 [Example 10, N-[4-({(4-cyclopropylisoquinolin-3-yl)[4-(trifluoromethoxy)benzyl]amino}sulfonyl)benzyl]acetamide] | 23.9 nmol/L
7 | CS(=O)(=O)NCc1ccc(S(=O)(=O)N(Cc2ccc(OC(F)(F)F)cc2)c2ncc3ccccc3c2C2CC2)cc1 [Example 11, N-(4-cyclopropylisoquinolin-3-yl)-4-{[(methylsulfonyl)amino]methyl}-N-[4-(trifluoromethoxy)benzyl]benzenesulfonamide] | 29.5 nmol/L
8 | O=S(=O)(c1ccc(CNS(=O)(=O)C(F)(F)F)cc1)N(Cc1ccc(OC(F)(F)F)cc1)c1ncc2ccccc2c1C1CC1 [Example 12, N-(4-cyclopropylisoquinolin-3-yl)-N-[4-(trifluoromethoxy)benzyl]-4-({[(trifluoromethyl)sulfonyl]amino}methyl)benzenesulfonamide] | 40.2 nmol/L
9 | O=c1[nH][nH]c2cc(S(=O)(=O)N(Cc3ccc(OC(F)(F)F)cc3)c3ncc4ccccc4c3C3CC3)ccc12 [Example 13, N-(4-cyclopropylisoquinolin-3-yl)-3-oxo-N-[4-(trifluoromethoxy)benzyl]-2,3-dihydro-1H-indazole-6-sulfonamide] | 4.3 nmol/L
10 | O=S(=O)(c1ccc(-c2nnn[nH]2)cc1)N(Cc1ccc(OC(F)(F)F)cc1)c1ncc2ccccc2c1C(F)(F)F [Example 15] | 2 nmol/L
11 | O=S(=O)(c1ccc(-c2nnn[nH]2)nc1)N(Cc1ccc(OC(F)(F)F)cc1)c1ncc2ccccc2c1C(F)(F)F [Example 16] | 1.6 nmol/L
12 | O=S(=O)(c1ccc(-c2ncn[nH]2)cc1)N(Cc1ccc(OC(F)(F)F)cc1)c1ncc2ccccc2c1C(F)(F)F [Example 20] | 3.2 nmol/L
13 | O=S(=O)(c1ccc(-c2ncn[nH]2)cc1)N(Cc1ccc(C(F)(F)F)cn1)c1ncc2ccccc2c1C1CC1 [Example 24] | 1.2 nmol/L
14 | O=S(=O)(c1ccc(-c2ncn[nH]2)nc1)N(Cc1ccc(OC(F)(F)F)cc1)c1ncc2ccccc2c1C(F)(F)F [Example 28] | 3.5 nmol/L
15 | Cc1n[nH]c(-c2ccc(S(=O)(=O)N(Cc3ccc(OC(F)(F)F)cc3)c3ncc4ccccc4c3C(F)(F)F)cn2)n1 [Example 29] | 2.2 nmol/L
16 | Cc1n[nH]c(-c2ccc(S(=O)(=O)N(Cc3ccc(OC(F)(F)F)cc3)c3ncc4ccccc4c3C3CC3)cn2)n1 [Example 30] | 1.1 nmol/L
17 | O=c1[nH]c(-c2ccc(S(=O)(=O)N(Cc3ccc(C(F)(F)F)cn3)c3ncc4ccccc4c3C3CC3)cc2)no1 [Example 31] | 1.1 nmol/L
18 | Cc1c(N(Cc2ccc(OC(F)(F)F)cc2)S(=O)(=O)c2ccc(-c3noc(=O)[nH]3)cc2)nc(C2CC2)c2ccccc12 [Example 32] | 2.7 nmol/L
19 | O=c1[nH]c(-c2ccc(S(=O)(=O)N(Cc3ccc(OC(F)(F)F)cc3)c3ncc4ccccc4c3C(F)(F)F)cn2)no1 [Example 33] | 3.6 nmol/L

Continued by falling IC50, values first:

Row | IC50 | SMILES
20 | 1.1 nmol/L | O=c1[nH]c(-c2ccc(S(=O)(=O)N(Cc3ccc(OC(F)(F)F)cc3)c3ncc4ccccc4c3C3CC3)cn2)no1 [Example 9, N-(4-cyclopropylisoquinolin-3-yl)-6-(5-oxo-4,5-dihydro-1,2,4-oxadiazol-3-yl)-N-[4-(trifluoromethoxy)benzyl]pyridine-3-sulfonamide]
21 | 1.1 nmol/L | Cc1n[nH]c(-c2ccc(S(=O)(=O)N(Cc3ccc(OC(F)(F)F)cc3)c3ncc4ccccc4c3C(F)(F)F)cc2)n1 [Example 21]
22 | 1 nmol/L | O=c1[nH]c(-c2ccc(S(=O)(=O)N(Cc3ccc(OC(F)(F)F)cc3)c3ncc4ccccc4c3C3CC3)cc2)no1 [Example 7, N-(4-cyclopropylisoquinolin-3-yl)-4-(5-oxo-4,5-dihydro-1,2,4-oxadiazol-3-yl)-N-[4-(trifluoromethoxy)benzyl]benzenesulfonamide]
23 | 1 nmol/L | Cc1cc(S(=O)(=O)N(Cc2ccc(C(F)(F)F)cn2)c2ncc3ccccc3c2C2CC2)ccc1-c1ncn[nH]1 [Example 26]
24 | 0.9 nmol/L | O=S(=O)(c1ccc(-c2nnn[nH]2)cc1)N(Cc1ccc(C(F)(F)F)cn1)c1ncc2ccccc2c1C1CC1 [Example 18]
25 | 0.8 nmol/L | Cc1n[nH]c(-c2ccc(S(=O)(=O)N(Cc3ccc(C(F)(F)F)cn3)c3ncc4ccccc4c3C3CC3)cc2C)n1 [Example 27]
26 | 0.7 nmol/L | O=S(=O)(c1ccc(-c2nnn[nH]2)nc1)N(Cc1ccc(OC(F)(F)F)cc1)c1ncc2ccccc2c1C1CC1 [Example 2, N-(4-cyclopropylisoquinolin-3-yl)-6-(1H-tetrazol-5-yl)-N-[4-(trifluoromethoxy)benzyl]pyridine-3-sulfonamide]
27 | 0.7 nmol/L | Cc1c(N(Cc2ccc(OC(F)(F)F)cc2)S(=O)(=O)c2ccc(-c3nnn[nH]3)cc2)nc(C2CC2)c2ccccc12 [Example 14]
28 | 0.7 nmol/L | Cc1n[nH]c(-c2ccc(S(=O)(=O)N(Cc3ccc(C(F)(F)F)cn3)c3ncc4ccccc4c3C3CC3)cc2)n1 [Example 25]
29 | 0.6 nmol/L | Cc1n[nH]c(-c2ccc(S(=O)(=O)N(Cc3ccc(OC(F)(F)F)cc3)c3ncc4ccccc4c3C3CC3)cc2)n1 [Example 22]
30 | 0.5 nmol/L | Cc1cc(S(=O)(=O)N(Cc2ccc(OC(F)(F)F)cc2)c2ncc3ccccc3c2C2CC2)ccc1-c1ncn[nH]1 [Example 23]
31 | 0.5 nmol/L | Cc1cc(S(=O)(=O)N(Cc2ccc(OC(F)(F)F)cc2)c2ncc3ccccc3c2C2CC2)ccc1-c1noc(=O)[nH]1 [Example 34]
32 | 0.3 nmol/L | O=S(=O)(c1ccc(-c2nnn[nH]2)cc1)N(Cc1ccc(OC(F)(F)F)cc1)c1ncc2ccccc2c1C1CC1 [Example 1, N-(4-cyclopropylisoquinolin-3-yl)-4-(1H-tetrazol-5-yl)-N-[4-(trifluoromethoxy)benzyl]benzenesulfonamide]
33 | 0.3 nmol/L | Cc1cc(S(=O)(=O)N(Cc2ccc(OC(F)(F)F)cc2)c2ncc3ccccc3c2C2CC2)ccc1-c1nnn[nH]1 [Example 17]
